For one experiment, the target named is Histone deacetylase 1 (Homo sapiens, UniProt Q13547). The experiment is described as follows: Inhibition of recombinant human full-length C-terminal FLAG-tagged HDAC1 expressed in baculovirus expression system using Ac-peptide-AMC as substrate preincubated for 15 mins followed by substrate addition by fluorescence assay.
The target in a further experiment is CDK2/Cyclin A2 (Homo sapiens, UniProt P24941). Briefly: Inhibition of wild-type human N-terminal GST-tagged CDK2/cycA2 expressed in Sf21 insect cells using FAM-labelled substrate preincubated for 10 mins followed by substrate addition and measured after 30 mins by fluorescence assay.
The next experiment has as its system A549. The experiment is described as follows: Antiproliferative activity against human A549 cells measured after 72 hrs by CCK8 assay. Particulars: A549, 72 h. The format is functional, cell-based. (In general: Formazan colour is commonly taken as a measure of viable cells.)
A further experiment concerns HepG2. Briefly: Antiproliferative activity against human HepG2 cells measured after 72 hrs by CCK8 assay. It is filed as functional, cell-based. Conditions: HepG2, 72 h.
Another experiment has as its system CAL-148. Briefly: Antiproliferative activity against human CAL148 cells measured after 72 hrs by CCK8 assay. Conditions: CAL-148, 72 h. It is filed as functional, cell-based.

We go through four compounds from ChEMBL document CHEMBL4387776, “Discovery of novel 9H-purin derivatives as dual inhibitors of HDAC1 and CDK2” (Bioorg Med Chem Lett, 2019).

Sequence of Histone deacetylase 1 (Q13547 whole entry): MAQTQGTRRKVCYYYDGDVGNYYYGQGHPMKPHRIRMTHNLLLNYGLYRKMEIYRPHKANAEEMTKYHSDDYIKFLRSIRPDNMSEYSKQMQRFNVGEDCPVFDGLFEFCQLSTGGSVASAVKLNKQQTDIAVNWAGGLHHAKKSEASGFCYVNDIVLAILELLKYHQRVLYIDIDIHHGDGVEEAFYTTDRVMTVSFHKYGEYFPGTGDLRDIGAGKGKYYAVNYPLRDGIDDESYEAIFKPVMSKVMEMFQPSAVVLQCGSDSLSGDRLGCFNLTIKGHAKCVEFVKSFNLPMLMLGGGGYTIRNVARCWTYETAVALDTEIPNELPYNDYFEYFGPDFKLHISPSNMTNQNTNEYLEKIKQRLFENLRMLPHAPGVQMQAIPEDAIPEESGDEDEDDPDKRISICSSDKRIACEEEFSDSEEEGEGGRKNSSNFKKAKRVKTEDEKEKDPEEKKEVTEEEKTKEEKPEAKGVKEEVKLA

The IC50 is the concentration needed to halve the response being measured. With `CC(C)n1cnc2c(NCc3cccc(/C=C/C(=O)NO)c3)nc(N3CCOCC3)nc21`, the IC50 at Histone deacetylase 1 came out at 7 nM; against CDK2/Cyclin A2 it was 127 nM; in the experiment with A549, 1260 nM; with HepG2 it was 220 nM; in the experiment with CAL-148, 390 nM.
The like results for `CCn1cnc2c(NCc3cccc(/C=C/C(=O)NO)c3)nc(N3CCOCC3)nc21` were, in that order, 5.8 nM, 56 nM, 1490 nM, 770 nM and 1140 nM.
Consider `Cc1[nH]c2ccccc2c1CCNCc1ccc(/C=C/C(=O)NO)cc1` [PANOBINOSTAT], for which the figures for the half-inhibitory concentration (IC50) in the experiment on A549, in the experiment with HepG2 and in the experiment with CAL-148 were 20 nM, under 100 nM and under 100 nM, respectively.
Regarding `CC[C@H](CO)Nc1nc(NCc2ccccc2)c2ncn(C(C)C)c2n1` [SELICICLIB], the concentration for half-maximal inhibition (IC50) with A549 was over 10000 nM; in the experiment with HepG2, 15800 nM; with CAL-148, over 10000 nM.
